From patent US9187411B2, “Leukotriene B4 antagonist compound” (Eli Lilly and Company, priority 2012, dated 2015)

Target: T1, PPARδ (Homo sapiens, UniProt Q03181)
T1 construct: made in house; host or cells: Sf9 insect cells (baculovirus), crude cell lysate
T1 sequence (Q03181 1-441): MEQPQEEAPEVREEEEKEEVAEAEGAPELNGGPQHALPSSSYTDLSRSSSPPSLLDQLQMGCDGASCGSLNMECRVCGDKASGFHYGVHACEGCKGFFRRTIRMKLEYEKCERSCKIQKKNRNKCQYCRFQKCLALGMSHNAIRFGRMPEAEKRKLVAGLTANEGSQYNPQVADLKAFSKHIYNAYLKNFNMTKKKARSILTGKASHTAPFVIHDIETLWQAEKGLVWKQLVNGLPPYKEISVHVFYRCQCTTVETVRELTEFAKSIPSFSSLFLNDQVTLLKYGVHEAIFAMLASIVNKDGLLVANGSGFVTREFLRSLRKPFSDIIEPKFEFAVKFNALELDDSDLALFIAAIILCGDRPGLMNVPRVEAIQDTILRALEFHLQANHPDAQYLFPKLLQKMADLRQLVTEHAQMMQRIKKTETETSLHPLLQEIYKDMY
T1 sequence (P19793 1-462 partner): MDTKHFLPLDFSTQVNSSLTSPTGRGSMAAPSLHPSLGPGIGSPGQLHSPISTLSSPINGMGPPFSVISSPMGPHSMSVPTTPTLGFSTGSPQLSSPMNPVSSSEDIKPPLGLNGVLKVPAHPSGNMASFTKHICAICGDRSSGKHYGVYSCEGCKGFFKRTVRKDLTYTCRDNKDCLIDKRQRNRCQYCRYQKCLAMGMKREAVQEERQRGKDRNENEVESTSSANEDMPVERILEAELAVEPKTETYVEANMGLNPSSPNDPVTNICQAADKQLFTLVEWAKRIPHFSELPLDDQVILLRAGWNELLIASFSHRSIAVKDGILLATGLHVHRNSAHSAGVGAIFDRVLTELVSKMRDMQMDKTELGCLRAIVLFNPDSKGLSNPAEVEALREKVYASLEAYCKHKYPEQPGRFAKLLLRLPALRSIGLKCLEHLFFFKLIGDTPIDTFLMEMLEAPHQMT
Assay: PPAR delta binding assay (SPA)
Settings: tritiated GW2331, n=4, read-out: Ki PPAR δ binding
Text: The nucleotide sequences encoding full-length PPARα receptor DNA (National Center for Biotechnology Information (NCBI) Reference Sequence NM_005036.4), PPARδ receptor DNA (NCBI Reference Sequence NM_006238.4), PPARγ receptor DNA (NCBI Reference Sequence NM_015869.4) and Retinoid X Receptor (RXR) α DNA (NCBI Reference Sequence NM_002957.4) are synthesized and inserted into pFastBacHTb (Invitrogen) vector in-framed with the N-terminal HIS tag from the vector. […] The protein concentration is determined by Bradford assay using BSA as the standard.
Binding Affinities of Compounds for the PPAR α, δ, γ Receptors are Assessed Using Scintillation Proximity Assay (SPA) Technology.
Biotinylated oligonucleotide(DR2) ^5′[…]^3′ (SEQ ID NO: 1) is used for binding of receptors to Yttrium silicate streptavidin-coated SPA beads (Perkin Elmer). The PPAR α, δ, γ and Retinoid X Receptor (RXR) α receptors (endogenously expressed as heterodimers) are cell lysates from Baculovirus expression systems in Sf9 cells. […] Non-specific binding is determined in the presence of 10000 nM unlabeled GW2331 (Kliewer, S. A. et al Proc. Natl. Acad. Sci. USA (1997), 94: 4318-4323) for the alpha and delta receptors and 2-methyl-2-[4-[3-[propyl[(5-pyridin-2-ylthiophen-2-yl)sulfonyl]amino]-propyl]phenoxy]propanoic (WO 2004/073606) for the gamma receptor. […]

CCCc1c(NC(=O)CC(C)(C)C(=O)[O-])cccc1OCCCOc1cc(O)c(-c2ccc(F)cc2)cc1CC.[Na+] [Example 2, Sodium 4-[[3-[3-[2-ethyl-4-(4-fluorophenyl)-5-hydroxy-phenoxy]propoxy]-2-propyl-phenyl]amino]-2,2-dimethyl-4-oxo-butanoate]
Ki: > 8.83 µM
